Assays:
Assay in all cases: Minimal inhibitory concentration (MIC), CLSI procedures
Format in all cases: cell-based
Staphylococcus aureus = test system: Staphylococcus aureus
Experimental: (§1) The combination of aqueous solutions of 50 mM glutathione and 50 mM silver carbene complex SCC22 at ambient conditions in a 1:1.25 ratio (final concentration 20 mM glutathione and 25 mM SCC22) results in a colorless hydrogel material. The gel was tested to determine its minimal inhibitory concentration (MIC) on three bacterial species including Pseudomonas aeruginosa, Staphylococcus aureus, and Escherichia coli using procedures published by the Clinical and Laboratory Standards Institute. The combination of aqueous solutions of 50 mM glutathione and 50 mM silver carbene complex SCC1 at ambient conditions in a 1:1.67 ratio (final concentration 15 mM glutathione and 25 mM SCC1) results in a colorless hydrogel material. The gel was tested to determine its minimal inhibitory concentration (MIC) on three bacterial species including Pseudomonas aeruginosa, Staphylococcus aureus, and Escherichia coli using procedures published by the Clinical and Laboratory Standards Institute. The combination of aqueous solutions of 50 mM glutathione and 50 mM silver carbene complex SCC8 at ambient conditions in a 1:1.25 ratio (final concentration 20 mM glutathione and 25 mM SCC8) results in a colorless hydrogel material (GSH8). The gel was tested to determine its minimal inhibitory concentration (MIC) on three bacterial species including Pseudomonas aeruginosa, Staphylococcus aureus, and Escherichia coli using procedures published by the Clinical and Laboratory Standards Institute.

Pseudomonas aeruginosa = test system: Pseudomonas aeruginosa
Experimental: as §1

Escherichia coli = test system: Escherichia coli
Experimental: as §1

NC[C@H]1O[C@H](O[C@H]2[C@H](O)[C@@H](O[C@H]3O[C@H](CO)[C@@H](O)[C@H](N)[C@H]3O)[C@H](N)C[C@@H]2N)[C@H](N)C[C@@H]1O [Tobramycin]
4 µg/mL: MIC S. aureus (Staphylococcus aureus) | MIC P. aeruginosa (Pseudomonas aeruginosa) | MIC E. coli (Escherichia coli)

From patent publication US20140378406A1, “SILVER BASED GELS FOR ANTIMICROBIAL APPLICATIONS” (The University of Akron, priority 2012, published 2014)
